Experimental data as given in US12071430B2 (The Johns Hopkins University, priority 2011, dated 2024).
Entries after “also recorded” stand apart in the source; their conditions may differ.

How the values were obtained:
CYP3A4 = biological target: T1, CYP3A4 (Homo sapiens, UniProt P08684); test: CYP3A4 enzyme assay (Vivid CYP3A4 Green Screening Kit); format: in vitro ADME; settings: for CYP3A4 Inhibition (compared to intracozanole at 1 um): % enzyme inhibition at 1 uM drug / % enzyme inhibition at 1 uM itraconazole; for CYP3A4 inhibition, in words: dose response or compared with itraconazole
T1 construct: purchased ThermoFisher P2857; host or cells: baculosomes (insect-cell microsomes, own knowledge)
T1 sequence (P08684 whole entry): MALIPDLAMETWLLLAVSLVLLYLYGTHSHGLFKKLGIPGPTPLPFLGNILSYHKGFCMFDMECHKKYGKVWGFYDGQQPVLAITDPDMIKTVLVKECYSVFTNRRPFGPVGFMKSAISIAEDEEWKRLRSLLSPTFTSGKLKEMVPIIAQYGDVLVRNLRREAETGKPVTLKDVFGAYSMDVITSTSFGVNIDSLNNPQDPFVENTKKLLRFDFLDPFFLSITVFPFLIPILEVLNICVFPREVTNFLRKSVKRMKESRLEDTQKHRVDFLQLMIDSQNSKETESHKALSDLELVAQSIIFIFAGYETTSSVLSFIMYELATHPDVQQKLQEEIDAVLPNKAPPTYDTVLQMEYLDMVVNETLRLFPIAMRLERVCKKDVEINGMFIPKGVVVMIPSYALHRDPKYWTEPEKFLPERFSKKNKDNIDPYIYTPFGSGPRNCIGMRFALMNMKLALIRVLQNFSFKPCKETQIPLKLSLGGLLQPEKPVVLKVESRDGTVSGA
Experimental: And CYP3A4 inhibition was initially determined using a cell-free fluorescence-based assay at a final concentration of 1 μM (Table 2).
CYP3A4 enzyme assay. CYP3A4 enzyme activity was tested using Vivid™ CYP3A4 Green Screening Kit (ThermoFisher, #P2857) using the manufacturer's protocol. Briefly, CYP3A4 baculosomes and drugs were incubated 10 min at 37° C. Then Vivid® Substrates were added and the fluorescence (ex/em:485/520) were read every 1 min for 60 minute.

HUVEC = HUVEC proliferation, [3H]-thymidine incorporation assay; format: cell-based, human; settings: for Proliferation (IC50/IC50 Itra): HUVEC IC50 relative to itraconazole; for IC50: Homo sapiens, HUVEC, [3H]-thymidine incorporation, unit inferred, values in μM, read-out: Proliferation IC50
Experimental: The inhibitory effects of the new analogs on HUVEC proliferation were measured using a [3H]-thymidine incorporation assay. The log P values, used as an indicator of lipophilicity, were calculated using ALOGPS2.1 software. Aqueous solubility is a key physiochemical property relevant for oral absorption. We determined the solubility of each analog in 0.001 N HCl (pH=3), which represents the acidic human gastric fluid.
HUVEC Culture and Proliferation Assays. HUVEC (Lonza) were grown in EGM-2 bullet kit media (Lonza) and used at passage eight or lower. The H thymidine incorporation assays were conducted as previously described. Briefly, cells were seeded on 96-well plate at a concentration of 2000 cells/well and allowed to settle overnight. Drugs were added to each well in triplicate. After 24 hours, cells were treated with 1 μCi of [3H] thymidine for 6 h. Then cells were harvested and transferred to filtermats. The scintillation were counted and IC50 were determined using Prism software (version 6.0).

| CYP3A4 Inhibition (compared to intracozanole at 1 um) (CYP3A4) | CYP3A4 inhibition, in words (CYP3A4) | Compound | Proliferation (IC50/IC50 Itra) (HUVEC) | IC50 (HUVEC) [µM] |
| --- | --- | --- | --- | --- |
| No inhibition |  | CCC(C)n1ncn(-c2ccc(N3CCN(c4ccc(OC[C@@H]5CO[C@@](CN(C)C)(c6ccc(Cl)cc6Cl)O5)cc4)CC3)cc2)c1=O (stereo partly drawn) [Compound 64, 1-(sec-butyl)-4-(4-(4-(4-(((2S,4R)-2-(2,4-dichlorophenyl)-2-((dimethylamino)methyl)-1,3-dioxolan-4-yl)methoxy)phenyl)piperazin-1-yl)phenyl)-1H-1,2,4-triazol-5(4H)-one] | 8.8 |  |
| 0.27 |  | CCC(C)n1ncn(-c2ccc(N3CCN(c4ccc(OC[C@@H]5CO[C@@](Cn6c(C)cnc6C)(c6ccc(Cl)cc6Cl)O5)cc4)CC3)cc2)c1=O (stereo partly drawn) [Compound 41, 1-(sec-butyl)-4-(4-(4-(4-(((2S,4R)-2-(2,4-dichlorophenyl)-2-((2,5-dimethyl-1H-imidazol-1-yl)methyl)-1,3-dioxolan-4-yl)methoxy)phenyl)piperazin-1-yl)phenyl)-1H-1,2,4-triazol-5(4H)-one] | 4.5 | 0.765 |
| 0.2 |  | CCC(C)n1ncn(-c2ccc(N3CCN(c4ccc(OC[C@@H]5CO[C@@](Cn6ncnn6)(c6ccc(Cl)cc6Cl)O5)cc4)CC3)cc2)c1=O (stereo partly drawn) [Compound 49, 4-(4-(4-(4-(((2S,4R)-2-((2H-tetrazol-2-yl)methyl)-2-(2,4-dichlorophenyl)-1,3-dioxolan-4-yl)methoxy)phenyl)piperazin-1-yl)phenyl)-1-sec-butyl-1H-1,2,4-triazol-5(4H)-one] | 0.7 | 0.124 |
| 0.85 |  | CCC(C)n1ncn(-c2ccc(N3CCN(c4ccc(OC[C@@H]5CO[C@@](Cn6ccnc6C)(c6ccc(Cl)cc6Cl)O5)cc4)CC3)cc2)c1=O (stereo partly drawn) [Compound 35, 1-sec-butyl-4-(4-(4-(4-(((2S,4R)-2-(2,4-dichlorophenyl)-2-((2-methyl-1H-imidazol-1-yl)methyl)-1,3-dioxolan-4-yl)methoxy)phenyl)piperazin-1-yl)phenyl)-1H-1,2,4-triazol-5(4H)-one] | 1.0 |  |
| 0.36 | reduced potency | CCC(C)n1ncn(-c2ccc(N3CCN(c4ccc(OC[C@@H]5CO[C@@](Cn6cnc(C)n6)(c6ccc(Cl)cc6Cl)O5)cc4)CC3)cc2)c1=O (stereo partly drawn) [Compound 50, 1-sec-butyl-4-(4-(4-(4-(((2S,4R)-2-(2,4-dichlorophenyl)-2-((3-methyl-1H-1,2,4-triazol-1-yl)methyl)-1,3-dioxolan-4-yl)methoxy)phenyl)piperazin-1-yl)phenyl)-1H-1,2,4-triazol-5(4H)-one] | 1.6 |  |
| 0.27 |  | CCC(C)n1ncn(-c2ccc(N3CCN(c4ccc(OC[C@@H]5CO[C@@](Cn6ccnc6-c6ccccc6)(c6ccc(Cl)cc6Cl)O5)cc4)CC3)cc2)c1=O (stereo partly drawn) [Compound 46, 1-sec-butyl-4-(4-(4-(4-(((2S,4R)-2-(2,4-dichlorophenyl)-2-((2-phenyl-1H-imidazol-1-yl)methyl)-1,3-dioxolan-4-yl)methoxy)phenyl)piperazin-1-yl)phenyl)-1H-1,2,4-triazol-5(4H)-one] | 0.8 |  |
| 1.09 |  | CCC(C)n1ncn(-c2ccc(N3CCN(c4ccc(OC[C@@H]5CO[C@@](CN6CCNCC6)(c6ccc(Cl)cc6Cl)O5)cc4)CC3)cc2)c1=O (stereo partly drawn) [Compound 66, 1-(sec-butyl)-4-(4-(4-(4-(((2S,4R)-2-(2,4-dichlorophenyl)-2-(piperazin-1-ylmethyl)-1,3-dioxolan-4-yl)methoxy)phenyl)piperazin-1-yl)phenyl)-1H-1,2,4-triazol-5(4H)-one] | 2.5 |  |
| 0.07 |  | CCC(C)n1ncn(-c2ccc(N3CCN(c4ccc(OC[C@@H]5CO[C@@](Cn6ccnc6C(C)C)(c6ccc(Cl)cc6Cl)O5)cc4)CC3)cc2)c1=O (stereo partly drawn) [Compound 45, 1-sec-butyl-4-(4-(4-(4-(((2S,4R)-2-(2,4-dichlorophenyl)-2-((2-isopropyl-1H-imidazol-1-yl)methyl)-1,3-dioxolan-4-yl)methoxy)phenyl)piperazin-1-yl)phenyl)-1H-1,2,4-triazol-5(4H)-one] | 0.5 | 0.084 |
| No inhibition |  | CCC(C)n1ncn(-c2ccc(N3CCN(c4ccc(OC[C@@H]5CO[C@@](Cc6ccccc6)(c6ccc(Cl)cc6Cl)O5)cc4)CC3)cc2)c1=O (stereo partly drawn) [Compound 60, 4-(4-(4-(4-(((2R,4R)-2-benzyl-2-(2,4-dichlorophenyl)-1,3-dioxolan-4-yl)methoxy)phenyl)piperazin-1-yl)phenyl)-1-sec-butyl-1H-1,2,4-triazol-5(4H)-one] | 3.0 | 0.513 |
| 0.08 |  | CCC(C)n1ncn(-c2ccc(N3CCN(c4ccc(OC[C@@H]5CO[C@@](Cn6nnnc6C)(c6ccc(Cl)cc6Cl)O5)cc4)CC3)cc2)c1=O (stereo partly drawn) [Compound 52, 1-sec-butyl-4-(4-(4-(4-(((2S,4R)-2-(2,4-dichlorophenyl)-2-((5-methyl-1H-tetrazol-1-yl)methyl)-1,3-dioxolan-4-yl)methoxy)phenyl)piperazin-1-yl)phenyl)-1H-1,2,4-triazol-5(4H)-one] | 0.6 |  |
| 0.08 |  | CCc1nccn1C[C@@]1(c2ccc(Cl)cc2Cl)OC[C@@H](COc2ccc(N3CCN(c4ccc(-n5cnn(C(C)CC)c5=O)cc4)CC3)cc2)O1 (stereo partly drawn) [Compound 43, 1-(sec-butyl)-4-(4-(4-(4-(((2S,4R)-2-(2,4-dichlorophenyl)-2-((2-ethyl-1H-imidazol-1-yl)methyl)-1,3-dioxolan-4-yl)methoxy)phenyl)piperazin-1-yl)phenyl)-1H-1,2,4-triazol-5(4H)-one] | 1.4 |  |
| 0.03 |  | CCC(C)n1ncn(-c2ccc(N3CCN(c4ccc(OC[C@@H]5CO[C@@](CBr)(c6ccc(Cl)cc6Cl)O5)cc4)CC3)cc2)c1=O (stereo partly drawn) [Compound 57, 4-(4-(4-(4-(((2S,4R)-2-(bromomethyl)-2-(2,4-dichlorophenyl)-1,3-dioxolan-4-yl)methoxy)phenyl)piperazin-1-yl)phenyl)-1-sec-butyl-1H-1,2,4-triazol-5(4H)-one] | 3.0 | 0.569 |
| No inhibition |  | CCC(C)n1ncn(-c2ccc(N3CCN(c4ccc(OC[C@@H]5CO[C@@](Cn6cccn6)(c6ccc(Cl)cc6Cl)O5)cc4)CC3)cc2)c1=O (stereo partly drawn) [Compound 34, 4-(4-(4-(4-(((2S,4R)-2-((1H-pyrazol-1-yl)methyl)-2-(2,4-dichlorophenyl)-1,3-dioxolan-4-yl)methoxy)phenyl)piperazin-1-yl)phenyl)-1-sec-butyl-1H-1,2,4-triazol-5(4H)-one] | 1.8 |  |
| 1.18 |  | CCC(C)n1ncn(-c2ccc(N3CCN(c4ccc(OC[C@@H]5CO[C@@](Cn6cnc(C)c6)(c6ccc(Cl)cc6Cl)O5)cc4)CC3)cc2)c1=O (stereo partly drawn) [Compound 38, 1-sec-butyl-4-(4-(4-(4-(((2S,4R)-2-(2,4-dichlorophenyl)-2-((4-methyl-1H-imidazol-1-yl)methyl)-1,3-dioxolan-4-yl)methoxy)phenyl)piperazin-1-yl)phenyl)-1H-1,2,4-triazol-5(4H)-one] | 0.6 |  |
| No inhibition | totally lost CYP3A4 inhibition | CCC(C)n1ncn(-c2ccc(N3CCN(c4ccc(OC[C@@H]5CO[C@@](CC)(c6ccc(Cl)cc6Cl)O5)cc4)CC3)cc2)c1=O (stereo partly drawn) [Compound 59, 1-sec-butyl-4-(4-(4-(4-(((2R,4R)-2-(2,4-dichlorophenyl)-2-ethyl-1,3-dioxolan-4-yl)methoxy)phenyl)piperazin-1-yl)phenyl)-1H-1,2,4-triazol-5(4H)-one] | 2.1 |  |
| 0.21 |  | CCC(C)n1ncn(-c2ccc(N3CCN(c4ccc(OC[C@@H]5CO[C@@](CN6CCN(C)CC6)(c6ccc(Cl)cc6Cl)O5)cc4)CC3)cc2)c1=O (stereo partly drawn) [Compound 65, 1-(sec-butyl)-4-(4-(4-(4-(((2S,4R)-2-(2,4-dichlorophenyl)-2-((4-methylpiperazin-1-yl)methyl)-1,3-dioxolan-4-yl)methoxy)phenyl)piperazin-1-yl)phenyl)-1H-1,2,4-triazol-5(4H)-one] | 3.8 |  |

| Compound | CYP3A4 Inhibition (compared to intracozanole at 1 um) (CYP3A4) | CYP3A4 inhibition, in words (CYP3A4) | Proliferation (IC50/IC50 Itra) (HUVEC) | IC50 (HUVEC) [µM] |
| --- | --- | --- | --- | --- |
| CCC(C)n1ncn(-c2ccc(N3CCN(c4ccc(OC[C@@H]5CO[C@@](Cn6cnc(C(F)(F)F)n6)(c6ccc(Cl)cc6Cl)O5)cc4)CC3)cc2)c1=O (stereo partly drawn) [Compound 51, 1-sec-butyl-4-(4-(4-(4-(((2S,4R)-2-(2,4-dichlorophenyl)-2-((3-(trifluoromethyl)-1H-1,2,4-triazol-1-yl)methyl)-1,3-dioxolan-4-yl)methoxy)phenyl)piperazin-1-yl)phenyl)-1H-1,2,4-triazol-5(4H)-one] | No inhibition | reduced potency; also recorded: eliminated CYP3A4 inhibition | 1.6 |  |
